Values joined by “and” are separate entries in the source; they are usually repeats but may differ in a detail not shown here. Equal values may be shown once. Where a name gives a salt, the structure may show the parent alone. Read-outs that look alike come from different tables or passages of the source.

Holding throughout (format): biochemical
Assay [1] deals with T1, epidermal growth factor receptor kinase (EGF-R Kinase, recombinant enzyme; His-tagged cytoplasmic domain of EGFR) (Homo sapiens, UniProt P00533).
T1 construct: EGFR cDNA encoding amino acids 645 - 1186 preceded by Met-Ala-(His)6; Met-Ala-(His)6 (N); made in house; host or cells: Sf9 insect cells, recombinant baculovirus vHcEGFR52
Kind of assay: Inhibition of Epidermal Growth Factor Receptor Kinase (EGF-R) using recombinant enzyme, RR-SRC peptide phosphorylation, 33P-ATP. The settings on record: for inhibition at 0.5 µM: read-out: %Inh @ 0.5 µM; for IC50: recombinant enzyme, 90 min at room temperature. As to the method:
Representative test compounds were evaluated for their ability to inhibit the phosphorylation of the tyrosine residue of a peptide substrate catalyzed by the enzyme epidermal growth factor receptor kinase. The peptide substrate (RR-SRC) has the sequence arg-arg-leu-ile-glu-asp-ala-glu-tyr-ala-ala-arg-gly. The enzyme used in this test procedure is the His-tagged cytoplasmic domain of EGFR. A recombinant baculovirus (vHcEGFR52) was constructed containing the EGFR cDNA encoding amino acids 645 - 1186 preceded by Met-Ala-(His)6. Sf9 cells in 100 mm plates were infected at an moi of 10 pfu/cell and cells were harvested 48 h post infection. A cytoplasmic extract was prepared using 1% Triton X-100 and applied to Ni-NTA column. After washing the column with 20 mM imidazole, HcEGFR was eluted with 250 mM imidazole (in 50 mM Na2HPO4, pH 8.0, 300 mM NaCl). Fractions collected were dialyzed against 10 mM HEPES, pH 7.0, 50 mM NaCl, 10% glycerol, lug/mL antipain and leupeptin and 0.1 mM Pefabloc SC. The protein was frozen in dry ice/methanol and stored -70°C.
Test compounds were made into 10 mg/mL stock solutions in 100% dimethylsulfoxide (DMSO). Prior to experiment, stock solutions were diluted to 500 uM with 100% DMSO and then serially diluted to the desired concentration with HEPES buffer (30 mM HEPES pH 7.4).
For the enzyme reaction, 10 uL of each inhibitor (at various concentrations) were added to each well of a 96-well plate. To this was added 3 uL of enzyme (1:10 dilution in 10mM HEPES, pH 7.4 for final cone. of 1:120). This was allowed to sit for 10 min on ice and was followed by the addition of 5 ul peptide (80 uM final cone.), 10ul of 4X Buffer (Table A), 0.25 uL ^33P-ATP and 12 uL H2O. The reaction was allowed to run for 90 min at room temperature and was followed by spotting the entire volume on to precut P81 filter papers. The filter discs were washed 2X with 0.5% phosphoric acid and radioactivity was measured using a liquid scintillation counter.
The inhibition data for representative compounds of the invention are shown below in TABLE 1. […] The % inhibition of the test compound was determined for at least three different concentrations and the IC50 value was evaluated from the dose response curve. […] CPM(control) is in units of counts per minute and was a number expressing the amount of radiolabled ATP (γ-^33P) incorporated into the RR-SRC peptide substrate by the enzyme after 90 minutes at room temperature in the absence of test compound as measured by liquid scintillation counting. The CPM values were corrected for the background counts produced by ATP in the absence of the enzymatic reaction. […]

Assay [2] concerns the target T2, Kinase insert Domain containing Receptor (KDR: the catalytic domain of the VEGF receptor) (Homo sapiens, UniProt P35968).
T2 construct: KDR: the catalytic domain of the VEGF receptor
Kind of assay: Inhibition of Kinase insert Domain containing Receptor (KDR), radioactive phosphorylation of Glu:Tyr copolymer. The settings on record: IC50, substrate phosphorylation. As to the method:
In this standard pharmacological test procedure, KDR protein is mixed, in the presence or absence of a inhibitor compound, with a substrate peptide to be phosphorylated (a copolymer of glutamic acid and tyrosine, E:Y :: 4:1) and other cofactors such as Mg^++ and sodium vanadate (a protein tyrosine phosphatase inhibitor) in an appropriate buffer to maintain pH (7.2). ATP and a radioactive tracer (either P^32- or P^33- labeled ATP) is then add to initiate phosphorylation. After incubation, the radioactive phosphate associated with the acid-insoluble fraction of the assay mixture is then quantified as reflection of substrate phosphorylation. […] Multiple entries for a given compound indication it was tested multiple times.

For assay [3], the target named is Epithelial Cell Kinase (ECK) (Homo sapiens, UniProt P29317). Kind of assay: Inhibition of Epithelial Cell Kinase (ECK), immobilized biotinylated peptide, HRP anti-phosphotyrosine readout. The note with it: IC50, substrate phosphorylation. As to the method: In this standard pharmacological test procedure, a biotinylated peptide substrate is first immobilized on neutravidin-coated microtiter plates. The test drug, the Epithelial Cell Kinase (ECK), Mg^++, sodium vanadate (a protein tyrosine phosphatase inhibitor), and an appropriate buffer to maintain pH (7.2) are then added to the immobilized substrate-containing microtiter wells. ATP is then added to initiate phosphorylation. After incubation, the assay plates are washed with a suitable buffer leaving behind phosphorylated peptide which is exposed to horse radish peroxidase (HRP)-conjugated anti-phosphotyrosine monoclonal antibody. The antibody-treated plates are washed again and the HRP activity in individual wells is quantified as a reflection of degree of substrate phosphorylation. […] Multiple entries for a given compound indication it was tested multiple times.
Epithelial Cell Kinase (ECK), sequence (P29317 24-976, species assumed): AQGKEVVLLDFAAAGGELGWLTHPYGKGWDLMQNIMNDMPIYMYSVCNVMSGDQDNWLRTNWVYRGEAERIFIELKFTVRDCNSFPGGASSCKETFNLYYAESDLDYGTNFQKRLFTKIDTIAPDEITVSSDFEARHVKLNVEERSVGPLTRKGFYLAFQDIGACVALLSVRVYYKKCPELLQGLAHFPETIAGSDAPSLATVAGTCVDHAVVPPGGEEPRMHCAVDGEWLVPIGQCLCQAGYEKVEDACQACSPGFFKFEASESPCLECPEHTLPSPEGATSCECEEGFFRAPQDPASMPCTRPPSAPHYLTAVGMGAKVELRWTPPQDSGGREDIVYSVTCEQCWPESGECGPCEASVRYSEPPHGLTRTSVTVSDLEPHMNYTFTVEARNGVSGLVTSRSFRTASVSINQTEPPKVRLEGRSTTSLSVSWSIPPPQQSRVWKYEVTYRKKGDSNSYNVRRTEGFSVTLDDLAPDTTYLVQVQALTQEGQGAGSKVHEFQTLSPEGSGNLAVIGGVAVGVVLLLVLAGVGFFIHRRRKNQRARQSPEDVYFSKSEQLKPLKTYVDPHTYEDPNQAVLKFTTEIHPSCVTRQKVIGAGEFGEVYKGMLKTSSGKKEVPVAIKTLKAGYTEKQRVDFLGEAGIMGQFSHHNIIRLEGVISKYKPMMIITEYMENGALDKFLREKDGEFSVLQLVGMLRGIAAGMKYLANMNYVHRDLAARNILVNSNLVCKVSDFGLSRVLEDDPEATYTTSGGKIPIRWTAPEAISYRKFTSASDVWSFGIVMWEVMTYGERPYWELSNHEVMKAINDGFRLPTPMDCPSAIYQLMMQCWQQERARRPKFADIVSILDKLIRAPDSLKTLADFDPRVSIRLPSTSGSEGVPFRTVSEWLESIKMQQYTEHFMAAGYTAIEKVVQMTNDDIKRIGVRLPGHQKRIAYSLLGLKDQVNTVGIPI

Assay [4] concerns the target Recombinant human MEK 1 (MAPKK) / recombinant human ERK2 (MAPK) (Mek-Erk) (Homo sapiens, UniProt P28482+Q02750). Kind of assay: Mitogen Activated Protein Kinase (MAPK) assay, two component coupled Mek-Erk test.
Method: To evaluate inhibitors of the MAP (mitogen activated protein) kinase a two component coupled standard pharmacological test procedure, which measures phosphorylation of a serine/threonine residue in an appropriate sequence in the substrate in the presence and absence of a putative inhibitor, was used. Recombinant human MEK 1 (MAPKK) was first used to activate recombinant human ERK2 (MAPK) and the activated MAPK (ERK) was incubated with substrate (MBP peptide or MYC peptide) in the presence of ATP, Mg^+2 and radiolabeled ^33P ATP. The phosphorylated peptide was captured on a P 81 phosphocellulose filter (paper filter or embedded in microtiter plate) washed and counted by scintillation methods.
The peptide substrates used in the assay are MBP, peptide substrate ([sequence]), or synthetic Myc substrate, ([sequence]•5 TFA. The recombinant enzymes used were prepared as GST fusion proteins of human ERK 2 and human MEK 1. Inhibitor samples were prepared as 10X stocks in 10% DMSO and an appropriate aliquot was used to deliver either 10 ug/ml for a single point screening dose or 100, 10, 1, and 0.1 uM final concentration for a dose response curve. Final DMSO concentrations were less than or equal to 1%.
The reaction was run as follows in 50 mM Tris kinase buffer, pH 7.4 in a reaction volume of 50 ul. The appropriate volume of kinase buffer and inhibitor sample was added to the tube. Appropriate dilution of enzyme was delivered to give 2-5 ug recombinant MAPK (Erk ) per tube. The inhibitor was incubated with MAPK (Erk) for 30 min at 0° C. Recombinant Mek (MAPKK) ( 0.5-2.5 ug) or fully activated Mek (0.05-0.1 units) was added to activate the Erk and incubated for 30 min at 30° C. Then substrate and gamma ^33P ATP was were added to give a final concentration of 0.5- 1 mM MBPP or 250-500 uM Myc; 0.2-0.5 uCi gamma P 33 ATP/tube; 50 µM ATP final concentration. Samples were incubated at 30°C for 30 minutes and the reaction was stopped by adding 25 µl of ice cold 10 %TCA .After samples were chilled on ice for 30 min, 20 µl of sample was transferred onto P 81 phosphocellulose filter paper or appropriate MTP with embedded P 81 filter. Filter papers or MTP were washed 2 times with a large volume of 1% acetic acid, then 2 times with water. The filters or MTP were briefly air dried before addition of scintillant and samples were counted in the appropriate scintillation counter set up for reading ^33P isotope.
The raw data was captured as cpm. Sample replicates were averaged and corrected for background count. Mean cpm data was tabulated by group and % inhibition by a test compound was calculated as (corrected cpm control- corrected. cpm sample/control) X 100 = % inhibition.

T2 sequence (P35968 834-1162 limits assumed): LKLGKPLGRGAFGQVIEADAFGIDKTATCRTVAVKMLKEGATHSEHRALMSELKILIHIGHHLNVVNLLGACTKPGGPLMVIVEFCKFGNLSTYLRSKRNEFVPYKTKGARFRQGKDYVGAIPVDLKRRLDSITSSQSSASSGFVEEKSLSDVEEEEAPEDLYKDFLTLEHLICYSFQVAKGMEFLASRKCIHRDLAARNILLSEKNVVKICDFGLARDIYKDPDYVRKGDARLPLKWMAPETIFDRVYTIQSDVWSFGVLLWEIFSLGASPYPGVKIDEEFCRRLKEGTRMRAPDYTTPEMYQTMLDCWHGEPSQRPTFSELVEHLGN
Recombinant human MEK 1 (MAPKK) / recombinant human ERK2 (MAPK) (Mek-Erk), sequence (P28482 2-360): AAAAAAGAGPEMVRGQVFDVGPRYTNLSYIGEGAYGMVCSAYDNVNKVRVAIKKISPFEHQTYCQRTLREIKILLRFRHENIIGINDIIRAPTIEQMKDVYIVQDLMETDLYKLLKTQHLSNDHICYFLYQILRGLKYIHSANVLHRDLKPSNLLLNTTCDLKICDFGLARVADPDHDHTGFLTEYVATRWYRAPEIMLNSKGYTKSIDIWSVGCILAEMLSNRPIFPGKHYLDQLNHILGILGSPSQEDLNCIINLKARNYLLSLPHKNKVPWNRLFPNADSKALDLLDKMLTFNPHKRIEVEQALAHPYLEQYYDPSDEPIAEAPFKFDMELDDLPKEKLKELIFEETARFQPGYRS
Recombinant human MEK 1 (MAPKK) / recombinant human ERK2 (MAPK) (Mek-Erk), sequence (Q02750 whole entry): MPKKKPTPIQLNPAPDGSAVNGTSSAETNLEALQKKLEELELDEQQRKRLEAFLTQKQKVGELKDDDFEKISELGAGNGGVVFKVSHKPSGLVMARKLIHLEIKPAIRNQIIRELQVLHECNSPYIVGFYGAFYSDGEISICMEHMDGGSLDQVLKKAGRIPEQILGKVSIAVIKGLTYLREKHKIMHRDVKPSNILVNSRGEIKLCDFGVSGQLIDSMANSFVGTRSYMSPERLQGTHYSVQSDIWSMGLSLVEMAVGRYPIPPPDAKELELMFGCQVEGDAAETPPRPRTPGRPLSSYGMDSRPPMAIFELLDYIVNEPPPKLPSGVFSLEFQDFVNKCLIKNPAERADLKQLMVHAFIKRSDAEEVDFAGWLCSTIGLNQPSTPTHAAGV

As to “4-(2,3-Dihydro-1H-indol-6-ylamino)-6,7-diethoxy-quinoline-3-carbonitrile [Example 96]”, in assay [1] (0.5 µM concentration of test compound), the “%Inh @ 0.5 µM” value is 6%.

As to `CCOc1cc2ncc(C#N)c(Nc3ccc4c(c3)OCO4)c2cc1OCC` [Example 98, 4-(Benzo[1,3]dioxol-5-ylamino)-6,7-diethoxy-quinoline-3-carbonitrile], the IC50 in assay [2] was 53 µM and > 2.65 µM; in assay [3] it was over 2.65 µM.

Turning to `COc1cc2ncc(C#N)c(Nc3ccc4c(c3)NCC4)c2cc1OC` [Example 113, 4-(2,3-Dihydro-1H-indol-6-ylamino)-6,7-methoxy-quinoline-3-carbonitrile], the IC50 in assay [2] came to 8.66 µM.

With `COc1cc2c(Nc3ccc4c(c3)NCC4)c(C#N)cnc2cc1OCCCc1ccncc1` [Example 119, 4-(2,3-Dihydro-1H-indol-6-ylamino)-6-methoxy-7-(3-pyridin-4-yl-propoxy)-quinoline-3-carbonitrile], the IC50 in assay [2] is 1.55 µM and 2.21 µM; in assay [3], 22.1 µM and > 2.21 µM.

For `N#Cc1cnc2cc3c(cc2c1Nc1ccc2cn[nH]c2c1)OCCO3` [Example 125, 9-(1H-Indazol-6-ylamino)-2,3-dihydro[1,4]dioxino[2,3-g]quinoline-8-carbonitrile], in assay [4] (read-out: Mek-Erk), the IC50 was found to be 35 µM.

On to `COc1cc2c(Nc3ccc4cn[nH]c4c3)c(C#N)cnc2c(OC)c1OC` [Example 128, 4-(1H-Indazol-6-ylamino)-6,7,8-trimethoxy-quinoline-3-carbonitrile], for which the IC50 is > 100 µM and 100 µM in assay [4] (read-out: Mek-Erk); over 79.9 µM in assay [2]; over 53.3 µM in assay [3].

As for `COc1cc2ncc(C#N)c(Nc3cccc4[nH]ccc34)c2cc1OC` [Example 136, 4-(1H-Indol-4-ylamino)-6,7-dimethoxy-quinoline-3-carbonitrile], the inhibition at 0.5 µM in assay [1] was determined as 33%. Moreover, the IC50 was over 1 µM in assay [1], over 29 µM in assay [2] and 0.871 µM in assay [3].

In the case of `COc1cc2ncc(C#N)c(Nc3ccc4[nH]ncc4c3)c2cc1OC` [Example 137, 4-(1H-Indazol-5-ylamino)-6,7-dimethoxy-quinoline-3-carbonitrile], the IC50 in assay [1] was 0.15 µM; in assay [2], 29 µM and > 2.9 µM; in assay [3], over 2.9 µM.

Regarding `COc1ccc(OC)c2c(Nc3ccc4cn[nH]c4c3)c(C#N)cnc12` [Example 138, 4-(1H-Indazol-6-ylamino)-5,8-dimethoxy-quinoline-3-carbonitrile], the IC50 was over 100 µM in assay [4] (read-out: Mek-Erk), over 86.9 µM in assay [2] and over 29 µM in assay [3].

For `COc1cc2ncc(C#N)c(Nc3ccc4cn[nH]c4c3)c2cc1OCCCN1CCOCC1` [Example 139, 4-(1H-Indazol-6-ylamino)-7-methoxy-6-(3-morpholin-4-yl-propoxy)-quinoline-3-carbonitrile hydrochloride], the IC50 is 15 µM in assay [4] (read-out: Mek-Erk µM); 21.8 µM and > 2.18 µM in assay [2]; over 2.18 µM in assay [3].

`COc1cc2ncc(C#N)c(Nc3ccc4nn[nH]c4c3)c2cc1OCCCN1CCOCC1` [Example 140, 4-(3H-Benzotriazol-5-ylamino)-7-methoxy-6-(3-morpholin-4-yl-propoxy)-quinoline-3-carbonitrile hydrochloride]: the IC50 was 22 µM and 15 µM in assay [4] (read-out: Mek-Erk µM, hydrochloride); 2.18 µM in assay [3].

Turning to `COc1ccc2c(Nc3ccc4[nH]ccc4c3)c(C#N)cnc2c1` [Example 146, 4-(1H -Indol-5-ylamino)-7-methoxy-quinoline-3-carbonitrile], the IC50 in assay [4] (read-out: Mek-Erk) stood at 3 µM.

Regarding `COc1cc2ncc(C#N)c(Nc3ccc4[nH]ccc4c3)c2cc1OC` [Example 150, 4-(1H -Indol-5-ylamino)-6,7-Dimethoxy-quinoline-3-carbonitrile], the IC50 was 0.0015 µM and 0.004 µM in assay [1]; 0.581 µM in assay [2]; over 29 µM in assay [3].

As to `COc1cc2ncc(C#N)c(Nc3ccc4[nH]cnc4c3)c2cc1OC` [Example 151, 4-(1H -Benzoimidazol-5-ylamino)-6,7-dimethoxy-quinoline-3-carbonitrile], in assay [1], the inhibition at 0.5 µM was found to be 34%. Also, the IC50 in assay [1] is over 1 µM; in assay [2], 29 µM; in assay [3], over 29 µM.

As to `COc1cc2ncc(C#N)c(Nc3ccc4[nH]c(C)nc4c3)c2cc1OC` [Example 152, 6,7-Dimethoxy-4-(2-methyl-1H -benzoimidazol-5-ylamino)-quinoline-3-carbonitrile], the inhibition at 0.5 µM in assay [1] came to 24%. In addition, the IC50 in assay [1] is over 1 µM; in assay [4] (read-out: Mek-Erk), over 100 µM; in assay [3], over 27.8 µM.

Take `COc1cc2ncc(C#N)c(Nc3ccc(Cl)c4ccccc34)c2cc1OC` [Example 154, 4-(4-Chloro-naphthalen-1-ylamino)-6,7 -Dimethoxy-quinoline-3-carbonitrile]: the IC50 in assay [2] was 12.8 µM and > 2.57 µM; in assay [3], 0.77 µM.

In the case of `COc1cc2ncc(C#N)c(Nc3cccc4c3CCCC4)c2cc1OC` [Example 155, 6,7-Dimethoxy-4-(5,6,7,8,- tetrahydro-naphthalen-1-ylamino)-quinoline-3-carbonitrile], in assay [4] (read-out: Mek-Erk), the IC50 was determined as 4 µM.

For the compound `COc1cc2c(Nc3ccc4cn[nH]c4c3)c(C#N)cnc2cc1OCCCl` [Example 166, 7-(2-Chloroethoxy)-4-(1H-indazol-6-ylamino)-6-methoxyquinoline-3-carbonitrile], the IC50 in assay [2] was over 2.54 µM; in assay [3], 0.762 µM.

`COc1cc2c(Nc3ccc4cn[nH]c4c3)c(C#N)cnc2cc1OCCN(C)C` [Example 167, 7-(2-Dimethylaminoethoxy)-4-(1H-indazol-6-ylamino)-6-methoxyquinoline-3-carbonitrile]: in assay [1], the inhibition at 0.5 µM was found to be 0% and the IC50 was over 1 µM. Also, in assay [4] (read-out: Mek-Erk), the IC50 came to 8 µM.

For the compound `COc1cc2c(Nc3ccc4cn[nH]c4c3)c(C#N)cnc2cc1OCCN1CCOCC1` [Example 168, 4-(1H-Indazol-6-ylamino)-6-methoxy-7-(2-morpholin-4-yl-ethoxy)quinoline-3-carbonitrile], the inhibition at 0.5 µM in assay [1] is 1%. Also, the IC50 is over 1 µM in assay [1], 4.5 µM in assay [2] and over 22.5 µM in assay [3].

In the case of `CCOc1cc2ncc(C#N)c(Nc3ccc(Sc4nccn4C)c(Cl)c3)c2cc1OCC` [Example 172, 4-[3-Chloro-4-(1-methyl-2-imidazolylthio)phenylamino]-6,7-diethoxy-3-quinolinecarbonitrile], in assay [1], the IC50 is 0.09 µM.

On to `COc1cc2ncc(C#N)c(Nc3ccc(Sc4nccn4C)c(Cl)c3)c2cc1OC` [Example 173, 4-[3-Chloro-4-(1-methyl-2-imidazolylthio)phenylamino]-6,7-dimethoxy-3-quinolinecarbonitrile], for which, in assay [1], the IC50 was 0.5 µM.

Regarding `C=CC(=O)Nc1ccc2ncc(C#N)c(Nc3ccc(Sc4nccn4C)c(Cl)c3)c2c1` [Example 176, N-{4-[3-Chloro-4-(1-methyl-1H-imidazol-2-ylsulfanyl)-phenylamino]-3-cyano-quinolin-6-yl}-acrylamide], in assay [1], the IC50 was 0.01 µM.
